What all share (assay): NCI anticancer screen, dose series, 48 h
Assay [1] has as its system MDA-MB-435.
The test system of assay [2] is MDA-N.
The subject of assay [3] is DMS 273 small cell lung.
The subject of assay [4] is DMS 114 small cell lung.
Assay [5] has as its system SNB-78 CNS.
Assay [6] deals with DLD-1 colon.
Assay [7] relates to M19-MEL melanoma.
Assay [8] has as its system HOP-18 NSCLC.

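Compound exposure: 48 hours, 5 concentrations, 96-well plates. Abbreviation: GI50, concentration required for 50% inhibition of growth. TGI: total growth inhibition.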

Turning to `Cc1c(-c2nc(N)nc(C3CC3)c2C)nc(N)nc1C1CC1`, the TGI in assay [1] and in assay [2] was more than 100 µM each time.
Take `Oc1c2c(c(O)c3ccccc13)=N[C@@H](c1ccccc1)[C@H](c1ccccc1)N=2`: the TGI in assay [3], in assay [4], in assay [5], in assay [6] and in assay [7] was more than 100 µM in each case.
Consider `FC(F)(F)c1ccc2c(Nc3cccc(C4CC(c5ccccc5)=NN4c4ccc(Cl)cc4)c3)ccnc2c1` (stereo not given), for which, in assay [1], the GI50 is 2.97 µM and the TGI worked out at 11.6 µM.
For `CS(=O)(=O)Nc1ccc(-c2ccc3c(NC(=O)C4CC4)n[nH]c3c2)cc1` the same measures were more than 25 µM and more than 25 µM.
On the same counts, the results for `COC(=O)NC/C=C\c1nc(CC/C=C\C(=O)OC2CC3CC(=O)O[C@@H](/C=C/CC(C)C)C[C@@H]4CCC(C)C(C[C@@H](OC)CC(C2)O3)O4)co1` (stereo not given in full) are less than 0.01 µM and 50.1 µM.
Turning to `CCCS(=O)(=O)c1nc(NC2CC2)cc(-c2ccc3c(ccn3C3CC(C)(C)NC(C)(C)C3)c2)n1`, in assay [1], the GI50 was 1.47 µM and the TGI is 2.95 µM.
As to `Cc1ccc([N+](=O)[O-])c2c(NCCCN(C)C)ccnc12`, the TGI in assay [1] was 45.1 µM; in assay [5] it was more than 100 µM; in assay [2], 98.4 µM.
Consider `C=CC(=O)N1CCN(c2ncnc3c(F)c(-c4c(O)cccc4F)c(Cl)cc23)CC1`, for which, in assay [1], the GI50 was 10.3 µM and the TGI stood at 23.9 µM.
For `CCCCCC(C(O)C#N)C(O)(C(F)(F)F)C(F)(F)F` (stereo not given), the TGI in assay [1] and in assay [2] was more than 10 µM in each case.
`Clc1ccc(OCc2nnc3n2N=C(c2ccc(Cl)cc2Cl)CS3)c(Cl)c1`: in assay [1], the GI50 is 24.3 µM and the TGI is more than 100 µM.
As for `C=C1C(=O)O[C@H]2[C@H]1CC/C(COC(=O)c1cc3cc(OC)ccc3[nH]1)=C\CC[C@@]1(C)O[C@@H]21`, in assay [1], the GI50 is 0.621 µM and the TGI turned out to be 2.03 µM.
For `CC1=C(C)C(=O)O[C@@H]([C@](C)(O)[C@]2(O)CC[C@@]3(O)[C@@H]4C[C@H]5O[C@]56CC=CC(=O)[C@]6(C)[C@H]4CC[C@]23C)C1` the same measures were 0.0541 µM and 1.08 µM.
Consider `CC(C)(C)c1nc2c(o1)C(=Nc1ccc(F)cc1)c1ccccc1C2=O`, for which the TGI in assay [3] is 10.5 µM; in assay [1], 3.76 µM; in assay [4] it was 7.81 µM; in assay [5], more than 100 µM; in assay [6], more than 100 µM; in assay [7], 3.08 µM. For the same compound, the TGI stood at 5.35 µM in assay [2] and 28.8 µM in assay [8].
With `CCn1c(-c2nonc2N)nc2ccc(F)cc21`, in assay [1], the GI50 was more than 25 µM and the TGI is more than 25 µM.
For `CC(=O)[CH-]C(C)=O.CC(=O)[CH-]C(C)=O.N=CC=N.[Sn+2]`, the GI50 in assay [3] was 2.91 µM; in assay [1] it was 2.59 µM; in assay [4], 2.32 µM; in assay [6] it was 1.71 µM; in assay [2], 1.68 µM; in assay [8], 11.5 µM. Further, the TGI in assay [3] came out at 8.57 µM; in assay [1] it was 7.43 µM; in assay [4], 5.17 µM; in assay [6], 3.26 µM; in assay [2] it was 3.69 µM; in assay [8], 23.7 µM.
For `CCN(CCO)CCNc1ccc(C)c2sc3cc(Cl)ccc3c(=O)c12`, in assay [1], the GI50 was 0.891 µM and the TGI amounted to 2.26 µM.
In the case of `C=C(COC(C)=O)CC(/C=C(\C)CCC=C(C)C)OC(C)=O` (stereo not given), the TGI in assay [3], in assay [4], in assay [5], in assay [6] and in assay [7] was more than 100 µM throughout.
Take `O=C(Nc1ccc(S(=O)(=O)N[C@@H](C(=O)O)c2ccccc2)cc1)c1ccc(F)cc1`: the TGI in assay [3], in assay [6], in assay [7] and in assay [8] was more than 100 µM throughout.
On to `CC(O)CN1C(=O)NC(Cc2ccccc2)C1=O` (stereo not given), for which the TGI in assay [3], in assay [4], in assay [5], in assay [6] and in assay [8] was more than 100 µM throughout.
Regarding `COc1cc(-c2cn(C)c(=O)c(C)c2C)cc(OC)c1CN1CC[C@H](N2CCN(c3ccc(N[C@H]4CCC(=O)NC4=O)cc3F)CC2)C(F)(F)C1`, in assay [1], the GI50 was 13.8 µM and the TGI is 30 µM.
On the same counts, the results for `NCCN1CCN(c2nccc(-c3ccc4ccccc4c3)n2)CC1` are 1.8 µM and 3.25 µM.
With `CC1CCCC(C(=O)/C(=C/c2cccc(Cl)c2)C(=O)C(=O)O)C1` (stereo not given), the TGI is more than 100 µM in assay [3]; 45.7 µM in assay [4]; more than 100 µM in assay [5]; 40.3 µM in assay [6]; 32.7 µM in assay [7]; more than 100 µM in assay [8].
Turning to `CNC(=O)c1cc(Oc2ccc(NC(=O)Nc3ccc(Cl)c(OC(F)(F)F)c3)c(F)c2)ccn1`, in assay [1], the GI50 was 1.29 µM and the TGI was 10.9 µM.
For `N#Cc1c(-c2ccccc2)nc2c(c(-c3ccccc3)nn2-c2ccccc2)c1-c1ccc(O)cc1` the same measures were 1.86 µM and 3.71 µM.
On the same counts, the results for `CNC(=O)c1ccc(-c2cnc3ncc(Cc4ccc5ncccc5c4)n3n2)cc1F` are more than 100 µM and more than 100 µM.
For `CCCNCc1cc(C)cc2c1nc(N1CCNCC1)n2Cc1cc(C)c(F)c(C)c1` the same measures were 1.7 µM and 3.21 µM.
Consider `CCCCCCNc1nc(NCCCCCC)c2[nH]c(NCCCCCC)nc2n1`, for which, in assay [1], the GI50 was 8.75 µM and the TGI amounted to 24.9 µM.
For the compound `CN(C)CCNC(=O)Nc1c(C#N)[n+]([O-])c2cc(Cl)c(Cl)cc2[n+]1[O-]`, in assay [1], the GI50 was 31 µM and the TGI is more than 100 µM.
Regarding `CCOC(=O)Cc1nc(/C(C#N)=C/c2ccco2)[nH]c(=O)c1C#N`, the TGI is more than 100 µM in assay [3]; 93.9 µM in assay [5]; more than 100 µM in assay [6]; more than 100 µM in assay [7]; more than 100 µM in assay [8].
In the case of `COC(=O)C(Cc1ccccc1)N/C=C\C(=O)c1ccc(Cl)cc1` (stereo not given), in assay [1], the GI50 was 14.1 µM and the TGI was found to be 30.8 µM.
For `CCN(Cc1c(F)cccc1F)c1ccc(CO)c(Cl)c1` the same measures were 14.8 µM and 40.9 µM.
On to `COc1cc(/C=C\c2ccc(O)cc2)cc(OC)c1OC`, for which the TGI in assay [3] is 2.9 µM; in assay [5], 8.3 µM; in assay [6] it was more than 100 µM; in assay [7], more than 100 µM; in assay [8] it was more than 100 µM.
On to `CCCCCC(=O)Oc1ccc(/C(=C(\C)c2ccc(OC)cc2)c2ccc(OCCN3CCCCC3)cc2)cc1`, for which, in assay [1], the GI50 is 7.93 µM and the TGI was 20.7 µM.
As to `COc1ccc(NC2=C(Br)C(=O)C(C)=C(C)C2=O)cc1`, in assay [1], the GI50 is 1.91 µM and the TGI was 3.49 µM.
On the same counts, the results for `C=CCOc1c(Br)cc(Br)cc1Br` are 3.46 µM and 66.1 µM.
For `Cc1sc(C)c(-c2ccc(CO)o2)c1-c1ccc(CO)o1` the same measures were more than 100 µM and more than 100 µM.
As to `O=C1CCn2c([nH]c3cccc4cccc2c43)=N1`, the TGI in assay [3], in assay [4], in assay [5] and in assay [7] was more than 100 µM in each case.
As to `CC/C=C\C/C=C\C1CC(=O)NCCCNCCCCN1` (stereo not given), the TGI in assay [3], in assay [4], in assay [5], in assay [6] and in assay [7] was more than 100 µM in each case.
Consider `Cc1ccc2/c(=C/c3ccc(N(C)C)cc3)c3cc(-c4ccccc4)[n+](C)n3c2c1`, for which, in assay [1], the GI50 is 0.037 µM and the TGI amounted to 1.66 µM.
On the same counts, the results for `Oc1ccc(Cc2ccccc2)c2cccnc12` are 1.83 µM and more than 100 µM.
On the same counts, the results for `O=C(N/N=C/c1ccc(Cl)cc1Cl)c1ccccc1Nc1cccc(C(F)(F)F)c1` are 22.3 µM and more than 100 µM.
For `CNc1nc(NC2CCCC2)nc(Sc2ccc(OC)cc2)n1` the same measures were more than 10 µM and more than 10 µM.
With `Cc1noc(C)c1-c1ccc2[nH]c(=O)n3c2c1OC[C@@H]3c1ccccn1`, in assay [1], the GI50 is 3 µM and the TGI was more than 100 µM.
In the case of `CC1(C)OC(=O)C=C([O-])O1.CC1(C)OC(=O)C=C([O-])O1.O=c1c(O)c(-c2ccc([O-])cc2[O-])oc2cc(O)cc(O)c12.[Ti+4]`, the GI50 is 32.2 µM in assay [3]; 64.7 µM in assay [4]; more than 100 µM in assay [5]; more than 100 µM in assay [6]; 92.1 µM in assay [7]; 25 µM in assay [8]. Further, the TGI in assay [3], in assay [4], in assay [5], in assay [6], in assay [7] and in assay [8] was more than 100 µM each time.
Consider `COc1ccccc1C(=O)c1ccc2ccccc2c1`, for which the TGI in assay [1] amounted to 8.88 µM.
For `COc1cc(/C=C2\CC3C4CC=C5CC(N6CCCC6)CC[C@]5(C)C4CC[C@]3(C)C2OC(C)=O)ccc1OCCN1CCCC1` (stereo not given in full), in assay [1], the GI50 was 19.6 µM and the TGI is 35.5 µM.
For `CN1CCN(Cc2ccc(NC(=O)c3ccc(C(C)(C)C)c(C#Cc4cnc5cccnn45)c3)cc2C(F)(F)F)CC1` the same measures were 1.5 µM and 2.95 µM.
For `COc1cc2c3c(n(CCCN4CCC(N)CC4)c(=O)c2cc1OC)-c1cc2c(cc1C3=O)OCO2` the same measures were 1.77 µM and 8.47 µM.
`Cc1ccc(C(=O)CC(Sc2cccc(Cl)c2Cl)c2ccc(Cl)cc2)cc1C` (stereo not given): in assay [1], the GI50 is 20 µM and the TGI was determined as 50 µM.
Consider `COc1ccc(C(=O)C(C(=O)CCC(=O)Nc2cccc(C(F)(F)F)c2)c2ccccc2)cc1` (stereo not given), for which the TGI in assay [3], in assay [4], in assay [5], in assay [6], in assay [7] and in assay [8] was more than 100 µM in each case.
Take `Cc1ncc(NC(=O)c2ccc(CN3CCN(C)CC3)c(C(F)(F)F)c2)cc1Nc1nccc(-c2cccnc2)n1`: in assay [1], the GI50 was 12 µM and the TGI was 24.4 µM.
Regarding `C[C@H]1CCC/C=C/[C@@H]2C[C@H](N)C[C@H]2[C@H](O)/C=C/C(=O)O1`, the GI50 in assay [1] and in assay [2] was more than 100 µM in each case. Also, the TGI in assay [1] and in assay [2] was more than 100 µM throughout.
Turning to `COc1ccc(C2=NC(C)(C)CO2)cc1`, the TGI in assay [3], in assay [4], in assay [5], in assay [6], in assay [7] and in assay [8] was more than 100 µM throughout.
Regarding `CCCSc1cc(Cl)nc(N)n1`, in assay [1], the GI50 is more than 100 µM and the TGI is more than 100 µM.
Compound `Nc1ccc(SC23CC4CC(CC(C4)C2)C3)cc1` displayed a TGI in assay [1] of more than 100 µM.
With `NS(=O)(=O)c1ccc(NC(=O)c2cccc3c(=O)c4ccccc4[nH]c23)cc1`, the TGI in assay [3], in assay [4], in assay [5], in assay [6], in assay [7] and in assay [8] was more than 100 µM each time.
As for `CC(=O)n1c(-c2ccc(Cl)cc2)nc2c(c1=O)C(c1ccc(Cl)cc1)c1sc3c(Cl)cccc3c1O2` (stereo not given), in assay [1], the GI50 is 0.167 µM and the TGI amounted to 0.463 µM.
Take `Clc1cc(Cl)c2c(Cl)cc(Cl)c3c2c1N=S=N3`: the TGI in assay [3], in assay [4], in assay [5], in assay [6], in assay [7] and in assay [8] was more than 100 µM throughout.

The values above are taken from PubChem BioAssay (NCI).
